Legend:
[1] = tested on: CD133+ cells enriched from medulloblastoma cell lines; conditions: cited from earlier work
T4302 CD133+ cells [2] = experiment: Trypan blue exclusion assay; assay type: cell-based, human; conditions: two days after 3-Gy radiation
Method: (§1) FIG. 2 is a series of graphs illustrating that γ-secretase inhibitors enhance radiation-induced cell death in glioma stem cells. (A) T4302 CD 133+ cells were pre-treated with DAPT or L685,458 for 4 hours and irradiated at 3 Gy. Percentage of dead cells was determined by trypan blue exclusion assay at 48 hours after radiation exposure. (B) T4302 CD 133+ cells were treated with GSIs ±radiation as indicated. Cells were then plated at 3000 cells per well in 96-well plates. Relative caspase 3/7 activities were determined by normalizing caspase activities to the corresponding cell titers. (C) T4302 CD 133+ cells were treated as described in FIG. 2A. 24 or 48 hours after radiation exposure, cells were labeled with FITC-conjugated Annexin V staining kit (BD Sciences) according to manufacturer's instructions and analyzed by flow cytometry. (D) T4302 CD 133+ cells were pre-treated with 2 μM DAPT for 4 hours, and were left unirradiated or irradiated at 1, 2 or 3 Gy. Relative caspase 3/7 activities were determined at 72 hours after radiation. (E) T4302 CD133+ cells were pre-treated with DAPT at indicated concentrations for 4 hours and irradiated at 3 Gy. Relative caspase activities were determined at 48 or 72 hours after radiation. *: p<0.01 by Student's t-test; #: p<0.01 by one-way ANOVA.

Chk1 and Chk2 = experiment: Immunoblotting of activating phosphorylation of Chk1 and Chk2; assay type: cell-based, human; conditions: following radiation, pretreated 24 hours
Method: (A) T4302 CD133+ cells were pretreated with DPAT or L685,458 for 24 hours prior radiation. One hour after radiation exposure, cells were harvested. The levels of activating phosphorylation of Chk1 and Chk2 were assessed by immunoblotting. (B) T4302 CD133+ cells were treated with 2 μM DAPT at 4, 24 hours prior to radiation (−24 hrs, or -4 hrs), or at 0, 4, 24 hours after radiation. Relative caspase 3/7 activities were measured 3 days after radiation exposure. *: p<0.001 by Student's t-test.
Antibodies, DNA constructs, lentiviruses and other reagents. The antibodies purchased from Cell Signaling Technology (Danvers, M A) include phosphor-S296-Chk1 (2349), total Chk1 (2345), phosphor-T68-Chk2 (2661), total Chk2 (2662), phospho-5473 Akt (#9271), total Akt (#9272), PTEN (#9556), phospho-S15-p53 (#9286), Bcl-2 (#2870), Bcl-xL (#2764), Mcl-1 (#4572), Puma (#4976). Other antibodies used in this study are p53 antibody (#sc-126, Santa Cruz Biotechnology, Santa Cruz, Calif.), and actin antibody (Millipore, Billerica, Mass.). The pcDNA3-Notch1 construct was kindly provided by Dr. Spyros Artavanis-Tsakonas, Harvard University. The coding sequences of intracellular domain of Notch1 (amino acid residues 1744-2556) was amplified by PCR and subcloned into the lentiviral vector pCDH-CMV-EF1-puro (System Biosciences, Mountain View, Calif.) through the EcoRI and NotI sites. […]

T4302 CD133+ cells [3] = experiment: Annexin V staining, flow cytometry; assay type: cell-based, human
Method: as §1

Notch signaling = experiment: Notch-responsive luciferase reporter (RBP-Jκ reporter) assay; assay type: cell-based, human; conditions: T4302 CD133+ cells; 2 μM DAPT or 0.5 μM L685,458 over night
Text: (§2) FIG. 1 is a series of graphs illustrating that γ-secretase inhibitors reduce cell growth and clonogenic survival of glioma stem cells following radiation. (A) T4302 CD133+ glioma stem cells were transfected with a Notch-responsive luciferase reporter (RBP-JK reporter) pre-mixed with the vector directing constitutive expression of Renilla luciferase. Cells were left unirradiated or irradiated at 3 Gy, and were then collected to measure luciferase activities at time points as indicated. […] The relative mRNA levels of Hes2 were determined by quantitative real-time PCR at the time points as indicated. […] Total viable cell numbers were then determined by the CellTiter-Glo Luminescent Cell Viability Assay (Promega) for the following five days. […] Cells were then plated to form neurospheres, and the surviving fractions were determined as described in methods. […] (F,G) Neurosphere formation of T3359 and T4105 CD 133+ cells treated with GSIs alone, 3-Gy radiation alone, or the combination was determined as described in FIG. 1E. *: p<0.05 by Student's t-test; #: p<0.001 by one-way ANOVA.
Luciferase assay. […] The luciferase activities were determined by the Dual-luciferase assay system (Promega).

[4] = tested on: T4302 CD133+ glioma stem cells; experiment: Growth curve, CellTiter-Glo Luminescent Cell Viability Assay; assay type: cell-based, human; conditions: without radiation treatment, day five; 2 μM DAPT or 0.5 μM L685,458
Text: as §2
Growth Curve, caspase 3/7 assay, and clonogenic survival assay. […] Cell number was measured for 5 days using the CellTiter-Glo assay kit (Promega, Madison, […].). […]

Row | Compound | apoptosis and differentiation in CD133+ cells [1] | apoptosis in nestin-expressing cells in comparison to nestin-negative cells [1] | tumorigenic capacity of CD133+ cells [1] | dead cells (T4302 CD133+ cells [2]) | activating phosphorylation of Chk1 or Chk2 (Chk1 and Chk2) | Annexin V-positive labeled cells (T4302 CD133+ cells [3]; 24 hours following 3 Gy radiation) | Annexin V-positive labeled cells (T4302 CD133+ cells [3]; 48 hours following 3 Gy radiation) | Notch signaling in glioma stem cells (Notch-responsive luciferase reporter) (Notch signaling) | sham-treated cells more than GSI-treated cells (total cell number) [4]
1 | O=S(=O)(NC1[C@@H]2CC[C@H]1Cc1ccccc1C2)c1cccs1 (stereo partly drawn) [GSI-18] | induces apoptosis and differentiation | 10 fold | impairs the tumorigenic capacity |  |  |  |  |  | 
2 | CC(C)C[C@H](NC(=O)[C@H](Cc1ccccc1)C[C@@H](O)[C@H](Cc1ccccc1)NC(=O)OC(C)(C)C)C(=O)N[C@@H](Cc1ccccc1)C(N)=O [L685,458] |  |  |  | 60% | Neither of DAPT or L685,458 significantly altered | not obvious | significantly increased | blocked | 60%
